How the values were obtained:
Acinetobacter baumannii = experiment: microbe, parasite or virus in culture; settings: ATCC 19606, 18 h, ASSAY_TEST Inhibition of Bacterial Growth, detection method Absorption (OD600), MEDIA CAMHB, plate type 384well, NBS, CORNING #3640
Description: Antibacterial activity against Acinetobacter baumannii ATCC 19606 (CO-ADD:GN_034); MIC in CAMBH media using NBS plates, by OD600

Escherichia coli = experiment: microbe, parasite or virus in culture; settings: ATCC 25922, 18 h, ASSAY_TEST Inhibition of Bacterial Growth, detection method Absorption (OD600), MEDIA CAMHB, plate type 384well, NBS, CORNING #3640
Description: Antibacterial activity against Escherichia coli ATCC 25922 (CO-ADD:GN_001); MIC in CAMBH media using NBS plates, by OD(600)

Candida albicans = experiment: microbe, parasite or virus in culture; settings: ATCC 90028, ASSAY_TEST Inhibition of Fungal Growth, detection method Absorption (OD530)
Description: Antifungal activity against Candida albicans ATCC 90028 (CO-ADD:FG_001); MIC in YNB media using NBS plates, by OD630

HEK293 = experiment: cells; assay type: functional; settings: Homo sapiens, ATCC CRL1573, HEK293; ASSAY_TEST Inhibition of Cell Viability; detection method Resazurin; Fluorescence (ex560/em590); MEDIA DMEM with 10% FBS; plate type 384well; TC; CORNING #3712; time 18 hr
Staphylococcus aureus = experiment: microbe, parasite or virus in culture; settings: ATCC 43300, 18 h, ASSAY_TEST Inhibition of Bacterial Growth, detection method Absorption (OD600), MEDIA CAMHB, plate type 384well, NBS, CORNING #3640
Description: Antibacterial activity against Staphylococcus aureus MRSA ATCC 43300 (CO-ADD:GP_020); MIC in CAMBH media, using NBS plates, by OD(600)

Klebsiella pneumoniae = experiment: microbe, parasite or virus in culture; settings: ATCC 700603, 18 h, ASSAY_TEST Inhibition of Bacterial Growth, detection method Absorption (OD600), MEDIA CAMHB, plate type 384well, NBS, CORNING #3640
Description: Antibacterial activity against Klebsiella pneumoniae MDR ATCC 70063 (CO-ADD:GN_003); MIC in CAMBH media using NBS plates, by OD(600)

Pseudomonas aeruginosa [1] = experiment: microbe, parasite or virus in culture; settings: ATCC 27853, 18 h, ASSAY_TEST Inhibition of Bacterial Growth, detection method Absorption (OD600), MEDIA CAMHB, plate type 384well, NBS, CORNING #3640
Description: Antibacterial activity against Pseudomonas aeruginosa ATCC 27853 (CO-ADD:GN_042); MIC in CAMBH media using NBS plates, by OD(600)

Pseudomonas aeruginosa [2] = experiment: Antibacterial activity against Pseudomonas aeruginosa PAO397 [PAO1 d(mexAB-oprM) d(mexCD-oprJ) d(mexEF-oprN) d(mexJKL) d(mexXY) d(opmH)] (CO-ADD:GN_211); MIC in CAMBH media using NBS plates, by OD(600); assay type: functional; settings: ASSAY_TEST Inhibition of Bacterial Growth, detection method Absorption (OD600), MEDIA CAMHB, plate type 384well, CORNING #3640, time 18 hr

Description for Cryptococcus neoformans: Antifungal activity against Cryptococcus neoformans H99 ATCC 208821 (CO-ADD:FG_002); MIC in YNB media using NBS plates, by Resazurin OD(600-570)

Cc1cccc(NC(=O)Cn2nc3c(Sc4ccc(C)cc4C)nccn3c2=O)c1
> 32 µg/mL: MIC (Acinetobacter baumannii) | MIC (Escherichia coli) | MIC (Cryptococcus neoformans) | MIC (Candida albicans) | CC50 (HEK293) | MIC (Staphylococcus aureus) | MIC (Klebsiella pneumoniae) | MIC (Pseudomonas aeruginosa [1])

Cc1ccc(CN(c2ccc(F)c(F)c2)S(=O)(=O)c2cccn3cnnc23)cc1
> 32 µg/mL: MIC (Acinetobacter baumannii) | MIC (Escherichia coli) | MIC (Cryptococcus neoformans) | MIC (Candida albicans) | CC50 (HEK293) | MIC (Staphylococcus aureus) | MIC (Pseudomonas aeruginosa [2]) | MIC (Klebsiella pneumoniae) | MIC (Pseudomonas aeruginosa [1])
